A word on the IC50: it is the concentration at which inhibition is half-maximal. One may read the inhibition as the drop in the measured response relative to a control, in per cent.

One experiment relates to PSA. Kind of experiment: Prostate-specific antigen (PSA) assay, secreted PSA from the eGFP assay plates. The class given is cell-based, human. Here is the method:
3. Prostate-specific antigen (PSA) assay: The evaluation of PSA levels secreted into the media was performed in parallel to the eGFP assay using the same plates. After cells were incubated for 3 days, 150 μl of the media was taken from each well, and added to 150 μl of PBS.

The target in the next experiment is T1, androgen receptor (AR) (Homo sapiens, UniProt P10275, T878A).
T1 sequence (P10275 1-920 T878A): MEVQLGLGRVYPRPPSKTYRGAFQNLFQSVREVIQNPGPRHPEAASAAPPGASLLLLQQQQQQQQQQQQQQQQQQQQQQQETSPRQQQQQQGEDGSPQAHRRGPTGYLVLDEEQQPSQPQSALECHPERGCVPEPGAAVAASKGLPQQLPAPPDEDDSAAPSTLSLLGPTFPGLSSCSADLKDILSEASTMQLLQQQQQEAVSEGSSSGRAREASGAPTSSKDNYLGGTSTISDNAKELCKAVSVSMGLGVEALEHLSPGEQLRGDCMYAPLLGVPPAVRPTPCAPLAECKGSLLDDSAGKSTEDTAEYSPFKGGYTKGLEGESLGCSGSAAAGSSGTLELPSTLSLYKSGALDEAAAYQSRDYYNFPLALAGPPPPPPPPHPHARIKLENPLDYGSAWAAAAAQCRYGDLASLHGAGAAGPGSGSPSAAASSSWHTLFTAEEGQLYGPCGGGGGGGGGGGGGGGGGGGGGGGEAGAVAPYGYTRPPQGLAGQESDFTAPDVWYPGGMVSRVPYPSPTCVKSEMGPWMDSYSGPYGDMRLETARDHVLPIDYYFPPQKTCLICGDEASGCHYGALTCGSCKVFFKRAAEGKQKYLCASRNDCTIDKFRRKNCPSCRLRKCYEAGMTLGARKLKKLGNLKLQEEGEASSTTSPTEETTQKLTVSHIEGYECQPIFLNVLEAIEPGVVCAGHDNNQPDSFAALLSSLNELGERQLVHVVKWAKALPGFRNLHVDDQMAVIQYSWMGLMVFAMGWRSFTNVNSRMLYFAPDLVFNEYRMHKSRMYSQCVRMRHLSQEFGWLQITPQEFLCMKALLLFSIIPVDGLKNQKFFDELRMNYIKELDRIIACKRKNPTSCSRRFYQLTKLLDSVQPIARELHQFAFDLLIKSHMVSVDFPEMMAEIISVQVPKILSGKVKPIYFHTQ
Kind of experiment: eGFP cellular AR transcription assay (LNCaP eGFP cells, LN-ARR2PB-eGFP). The note with it: for inhibition at 3 µM: LNCaP, read-out: % Inhibition (3 μM).

Setting [1] is: eGFP IC50 (μM), LNCaP eGFP cells.

Like-named read-outs stand apart in the source and are kept apart here.

Regarding `CCOC(=O)c1c(C)[nH]c(C(=O)N[C@@H]2CCCc3ccccc32)c1C` [Compound 14002], the IC50 in the experiment with PSA (Homo sapiens, secreted PSA) came out at 3540 nM; against androgen receptor (AR) (setting [1]) it was 11.8 µM.
Consider `CC(=O)Nc1cccc(NC(=O)c2ccc(C)c(-n3cccc3)c2)c1` [Compound 14010], for which the IC50 in the experiment on PSA (Homo sapiens, secreted PSA) is 19300 nM; on androgen receptor (AR) (setting [1]), 32.5 µM.
On to `c1ccc(-c2ccc(N3CCOCC3)s2)cc1` [Compound 14103], for which the IC50 in the experiment on PSA (Homo sapiens, Series 1) was 511 nM; at androgen receptor (AR) (eGFP IC50 (μM), Series 1), 0.522 µM. The inhibition at 3 µM on androgen receptor (AR) was found to be 100%.
`N#Cc1ccc(-c2ccc(N3CCOCC3)s2)cc1` [Compound 14117]: the IC50 in the experiment with PSA (Homo sapiens, Series 1) came out at 885 nM; on androgen receptor (AR) (eGFP IC50 (μM), Series 1), 1.43 µM. The inhibition at 3 µM on androgen receptor (AR) turned out to be 111%.
In the case of `c1ccc(-c2csc(-c3ccccn3)n2)cc1` [Compound 14130], the values for the IC50 in the experiment with PSA (Series 1) and at androgen receptor (AR) (read-out: eGFP IC50) were 8540 nM and 7.4 µM, respectively.
As to `c1cc(-c2csc(N3CCCCC3)n2)cs1` [Compound 14131], the IC50 was 540 nM with PSA (Homo sapiens, Series 1) and 0.82 µM against androgen receptor (AR) (eGFP IC50 (μM), Series 1). The inhibition at 3 µM on androgen receptor (AR) was 117%.
Consider `Cc1[nH]c2ccccc2c1-c1csc(N2CCOCC2)n1` [Compound 14135], for which the IC50 with PSA (Homo sapiens, Series 1) is 7800 nM; on androgen receptor (AR) (eGFP IC50 (μM), Series 1), 6.89 µM. The inhibition at 3 µM on androgen receptor (AR) was 64%.
For the compound `c1ccc2c(-c3nc(-c4ccncc4)cs3)c[nH]c2c1` [Compound 14150], the IC50 worked out at 1290 nM in the experiment with PSA (Homo sapiens, Series 1) and 1.44 µM on androgen receptor (AR) (eGFP IC50 (μM), Series 1). The inhibition at 3 µM at androgen receptor (AR) worked out at 133%.
Consider `c1ccc2cc(-c3cscn3)ccc2c1` [Compound 14193], for which the IC50 with PSA (Homo sapiens, secreted PSA) was found to be 640 nM; on androgen receptor (AR) (setting [1]), 1.3 µM.
With `CNc1nc(-c2ccc3ccccc3c2)cs1` [Compound 14203], the IC50 was found to be 3910 nM with PSA (Homo sapiens, secreted PSA) and 3.17 µM at androgen receptor (AR) (setting [1]). The inhibition at 3 µM at androgen receptor (AR) is 91.5%.
In the case of `Nc1nc(-c2ccc3ccccc3c2)cs1` [Compound 14204], the IC50 in the experiment with PSA (Homo sapiens, secreted PSA) was 10600 nM; against androgen receptor (AR) (setting [1]) it was 9.16 µM. Besides, at androgen receptor (AR), the inhibition at 3 µM was 67.2%.
As to `c1ccc(-c2csc(N3CCCCC3)n2)cc1` [Compound 14233], the IC50 with PSA (Homo sapiens, Series 1) was determined as 690 nM; on androgen receptor (AR) (eGFP IC50 (μM), Series 1), 1.02 µM.
Take `FC(F)(F)C1CN(c2nc(-c3ccccc3)cs2)CCO1` (stereo not shown) [Compound 14250]: the IC50 with PSA (Series 1) was 160 nM; at androgen receptor (AR) (read-out: eGFP IC50), 1.64 µM.
As for `Fc1ccc(-c2csc(N3CCOCC3)n2)cc1` [Compound 14255], the IC50 was 410 nM in the experiment with PSA (Homo sapiens, Series 1) and 0.66 µM at androgen receptor (AR) (eGFP IC50 (μM), Series 1). Besides, the inhibition at 3 µM on androgen receptor (AR) stood at 44.9%.
Turning to `COc1ccccc1-c1csc(N2CCOCC2)n1` [Compound 14257], the IC50 with PSA (Homo sapiens, Series 1) worked out at 830 nM; against androgen receptor (AR) (eGFP IC50 (μM), Series 1) it was 0.22 µM. The inhibition at 3 µM at androgen receptor (AR) is 118%.
The compound `Fc1ccc(F)c(-c2csc(N3CCOCC3)n2)c1` [Compound 14262] displayed an IC50 in the experiment with PSA (Series 1) of 10400 nM. Moreover, the “% Inhibition (3 μM)” value at androgen receptor (AR) is given as 96.6%.
Regarding `Clc1ccc(-c2csc(N3CCOCC3)n2)c(Cl)c1` [Compound 14263], the IC50 with PSA (Series 1) stood at 1320 nM; at androgen receptor (AR) (read-out: eGFP IC50) it was 1.66 µM.
On to `Fc1ccc(-c2csc(N3CCOCC3)n2)cc1F` [Compound 14264], for which the 50% inhibitory concentration (IC50) with PSA (Homo sapiens, Series 1) was 110 nM; at androgen receptor (AR) (eGFP IC50 (μM), Series 1), 0.24 µM. Besides, on androgen receptor (AR), the inhibition at 3 µM is 115%.
As to `Clc1ccc(-c2csc(N3CCOCC3)n2)cc1Cl` [Compound 14266], the IC50 worked out at 2960 nM with PSA (Series 1) and 3.31 µM at androgen receptor (AR) (read-out: eGFP IC50). Moreover, on androgen receptor (AR), the “% Inhibition (3 μM)” value was 82.19%.
`Nc1ccccc1-c1csc(N2CCOCC2)n1` [Compound 14273]: the IC50 came to 2030 nM in the experiment on PSA (Homo sapiens, Series 1) and 1.41 µM on androgen receptor (AR) (eGFP IC50 (μM), Series 1). In addition, the inhibition at 3 µM on androgen receptor (AR) was 73.4%.
As for `CCc1sc(N2CCOCC2)nc1-c1ccccc1` [Compound 14285], the IC50 with PSA (Series 1) turned out to be 8430 nM; at androgen receptor (AR) (read-out: eGFP IC50), 5.85 µM. For the same compound, the “% Inhibition (3 μM)” value at androgen receptor (AR) is reported as 52.34%.
On to `FC(F)(F)c1cccc(-c2csc(N3CCOCC3)n2)c1` [Compound 14292], for which the IC50 worked out at 580 nM in the experiment on PSA (Homo sapiens, Series 1) and 0.61 µM against androgen receptor (AR) (eGFP IC50 (μM), Series 1).
As to `Cc1ccc(C)c(-c2csc(N3CCOCC3)n2)c1` [Compound 14293], the IC50 with PSA (Homo sapiens, Series 1) amounted to 520 nM; against androgen receptor (AR) (eGFP IC50 (μM), Series 1) it was 0.62 µM.
Regarding `Oc1cccc(-c2ccc3ccccc3n2)c1` [Compound 14300], the IC50 with PSA (Homo sapiens, secreted PSA) amounted to 1040 nM; against androgen receptor (AR) (setting [1]), 0.23 µM.
In the case of `Oc1cccc(N2Cc3ccccc3C2)c1` [Compound 14309], the IC50 in the experiment with PSA (Homo sapiens, secreted PSA) turned out to be 500 nM; at androgen receptor (AR) (setting [1]), 0.75 µM.
On to `Fc1ccc(-c2csc(-c3ccncc3)n2)cc1` [Compound 14315], for which the IC50 in the experiment with PSA (Homo sapiens, Series 1) worked out at 632 nM; at androgen receptor (AR) (eGFP IC50 (μM), Series 1) it was 1.19 µM. Also, the inhibition at 3 µM on androgen receptor (AR) turned out to be 83.3%.
On to `c1sc(N2CCOCC2)nc1C1CCCCC1` [Compound 14406], for which the “anti-AR activity (AR transcriptional inhibition) in words” value on androgen receptor (AR) (LNCaP (T877A AR)) is on record as “lost their anti-AR activity”. The “eGFP IC50” value at androgen receptor (AR) (LNCaP eGFP cells, 0.1 nM R1881) is recorded as “Low activity”. Also, on androgen receptor (AR), the inhibition at 3 µM stood at 33%.
With `Cc1sccc1-c1csc(N2CCOCC2)n1` [Compound 14407], the “% Inhibition (3 μM)” value on androgen receptor (AR) stood at 38.00%.

Source of the values: patent publication US10011573B2, “Human androgen receptor DNA-binding domain (DBD) compounds as therapeutics and methods for their use” (The University of British Columbia, priority 2014, dated 2018).
